Experimental findings from patent publication US12152991B2, “Time-resolved laser-induced fluorescence spectroscopy systems and uses thereof” (Cedars-Sinai Medical Center, priority 2013, dated 2024) are described below.

The assay concerns rabbit brain tissue. The assay can be described thus: Continuous NADH fluorescence monitoring (TRLIFS) in ex-vivo brain tissue exposed to Rotenone. Format: cell-based. The following applies: FIG. 6. An excerpt: In order to excite the tissue, a Q-switched Nd:YaG laser emitting at a wavelength of 350 nm was used, running at 1 KHz with a pulse width (FWHM) of 400 ps (Teem Photonics PNVM02510). […] The excitation light was delivered to the tissue using a custom made trifurcated optical probe. The probe consisted of a central 600 micron fiber for delivering the excitation light surrounded by twelve 200 micron fibers to collect the fluorescence (FIG. 3). Every other fiber from the twelve collection fibers were bundled together forming two channels. One collection channel/bundle connected to a spectrometer (Ocean Optics, Maya), which measured the fluorescence spectrum every 100 ms and the other channel/bundle connected to a beam splitter (demultiplexer). The beam splitter at 452 nm of wavelength separated the significant free and bound fluorescence, which was recorded both by MCP-PMT and spectrometer.
Rabbit brain was removed after sacrificing the animal in the OR and transported in cold oxygen rich Kreb-ringer solution to the laboratory. […] A baseline NADH (bound and free) was recorded till the fluorescence from the tissue equilibrated and plateaued. After approximately 30 mins, a measured dose of 50 nM rotenone, which blocks the binding of NADH to […] in the mitochondrion, was added. […]
The effect of various concentrations of Rotenone on the rabbit brain tissue was recorded (FIG. 6). […]

Consider `C=C(C)[C@H]1Cc2c(ccc3c2O[C@@H]2COc4cc(OC)c(OC)cc4[C@@H]2C3=O)O1` [Rotenone], for which the “NADH level (fluorescence, free and bound)” value (ex-vivo rabbit brain cortex in Kreb-Ringer solution, 95% O2/5% CO2, 50 nM Rotenone added, excitation 350 nm) was “increase in NADH level”. Besides, the NADH fluorescence entry (ex-vivo rabbit brain cortex, increasing concentrations of Rotenone added every 10 mins) is recorded as “NADH fluorescence increased”.
